Measured values as given in patent US20160271118A1, “PHARMACEUTICAL COMPOSITIONS COMPRISING ANTIBACTERIAL AGENTS” (priority 2013, published 2016).
Read-outs that look alike come from different tables or passages of the source.

How the values were obtained:
Assay type in all cases: cell-based, Acinetobacter baumannii
A. baumannii = assay: Broth microdilution MIC (CLSI), A. baumannii strains overall; conditions: used alone; for MIC: Acinetobacter baumannii, A. baumannii strains producing OXA 23, OXA 24 or OXA 27
Description: (§1) The broth microdilution Minimum Inhibitory Concentration (MIC) studies were conducted as per the CLSI recommendations (Clinical and Laboratory Standards Institute (CLSI), Performance Standards for Antimicrobial Susceptibility Testing, 20th Informational Supplement, M 100-S20, Volume 30, No. 1, 2010). The media utilized was Brain Heart Infusion broth (BD, USA). In brief, 50 mcl of serial double dilutions of the antibacterial agents in Brain Heart Infusion media were dispensed in 96 well microtiter plate. 50 mcl of culture suspension was added to each pre dispensed drug dilution such that the final bacterial inoculum density was 2-8×10^5 CFU/ml. The plates were incubated for 20-24 hours at 35±2° C. and observed visually for growth or no growth based on the turbidity. Three specific compounds generally represented by a general Formula (I) were used and are as follows: • 1. (2S,5R)-7-oxo-N-[(3S)-pyrrolidin-3-yloxy]-6-(sulfooxy)-1,6-diazabicyclo[3.2.1]octane-2-carboxamide (Compound A),
(§2) The results of antibacterial activity of various compounds when used alone and in combinations according to the inventions are shown in Tables 1 and 2 respectively. The strains of A. baumannii used for the study were those which produced carbapenem hydrolyzing class D beta-lactamase enzymes (OXA 23, OXA 24 or OXA 27). […] In general, the MIC values of Sulbactam and Cefepime reduced when these were combined with Compounds A, B and C.

A. baumannii NCTC 13301 = assay: Broth microdilution MIC (CLSI), A. baumannii NCTC 13301; conditions: for MIC: Acinetobacter baumannii, NCTC13301; for MIC of Sulbactam in combination of compound: compound at 4 mcg/ml; for MIC of Cefepime in combination of compound: compound at 8 mcg/ml
Description: as §1, §2

A. baumannii NCTC 13302 = assay: Broth microdilution MIC (CLSI), A. baumannii NCTC 13302; conditions: for MIC: Acinetobacter baumannii, NCTC13302; for MIC of Sulbactam in combination of compound: compound at 4 mcg/ml; for MIC of Cefepime in combination of compound: compound at 8 mcg/ml
Description: as §1, §2

A. baumannii NCTC 13304 = assay: Broth microdilution MIC (CLSI), A. baumannii NCTC 13304; conditions: for MIC: Acinetobacter baumannii, NCTC13304; for MIC of Sulbactam in combination of compound: compound at 4 mcg/ml; for MIC of Cefepime in combination of compound: compound at 8 mcg/ml
Description: as §1, §2

[1] = compound alone, A. baumannii NCTC 13301 (OXA 51, OXA 23), read-out: MIC
[2] = A. baumannii NCTC 13301 (OXA 51, OXA 23)
[3] = compound alone, A. baumannii NCTC 13302 (OXA 51, OXA 24), read-out: MIC
[4] = A. baumannii NCTC 13302 (OXA 51, OXA 24)
[5] = compound alone, A. baumannii NCTC 13304 (OXA 51, OXA 27), read-out: MIC
[6] = A. baumannii NCTC 13304 (OXA 51, OXA 27)

Row | MIC (A. baumannii) | MIC (A. baumannii NCTC 13301; [1]) | MIC of Sulbactam in combination of compound (A. baumannii NCTC 13301; [2]) | MIC of Cefepime in combination of compound (A. baumannii NCTC 13301; [2]) | MIC (A. baumannii NCTC 13302; [3]) | MIC of Sulbactam in combination of compound (A. baumannii NCTC 13302; [4]) | MIC of Cefepime in combination of compound (A. baumannii NCTC 13302; [4]) | MIC (A. baumannii NCTC 13304; [5]) | MIC of Sulbactam in combination of compound (A. baumannii NCTC 13304; [6]) | MIC of Cefepime in combination of compound (A. baumannii NCTC 13304; [6]) | SMILES | antibacterial activity against A. baumannii (A. baumannii) | MIC (A. baumannii NCTC 13301) | MIC (A. baumannii NCTC 13302) | MIC (A. baumannii NCTC 13304)
1 | > 128 µg/mL | > 128 µg/mL | 4 µg/mL | 16 µg/mL | > 128 µg/mL | 8 µg/mL | 16 µg/mL | > 128 µg/mL | 8 µg/mL | 16 µg/mL | O=C(NO[C@H]1CCNC1)[C@@H]1CC[C@@H]2CN1C(=O)N2OS(=O)(=O)O [Compound A, (2S,5R)-7-oxo-N-[(3S)-pyrrolidin-3-yloxy]-6-(sulfooxy)-1,6-diazabicyclo[3.2.1]octane-2-carboxamide] |  |  |  | 
2 | > 128 µg/mL | > 128 µg/mL | 4 µg/mL | 16 µg/mL | > 128 µg/mL | 4 µg/mL | 16 µg/mL | > 128 µg/mL | 4 µg/mL | 8 µg/mL | O=C(NOC[C@@H]1CCCN1)[C@@H]1CC[C@@H]2CN1C(=O)N2OS(=O)(=O)O [Compound B, (2S,5R)-7-oxo-N-[(2S)-pyrrolidin-2-ylmethyloxy]-6-(sulfooxy)-1,6-diazabicyclo[3.2.1]octane-2-carboxamide] |  |  |  | 
3 | > 128 µg/mL | > 128 µg/mL | 4 µg/mL | 32 µg/mL | > 128 µg/mL | 8 µg/mL | 16 µg/mL | > 128 µg/mL | 8 µg/mL | 8 µg/mL | O=C(NOC[C@@H]1CCCCN1)[C@@H]1CC[C@@H]2CN1C(=O)N2OS(=O)(=O)O [Compound C, (2S,5R)-7-oxo-N-[(2S)-piperidine-2-ylmethyloxy]-6-(sulfooxy)-1,6-diazabicyclo[3.2.1]octane-2-carboxamide] |  |  |  | 
4 |  | > 32 µg/mL |  |  | 32 µg/mL |  |  | 32 µg/mL |  |  | CO/N=C(\C(=O)N[C@@H]1C(=O)N2C(C(=O)[O-])=C(C[N+]3(C)CCCC3)CS[C@H]12)c1csc(N)n1 [Cefepime, reference compound] | poor antibacterial activity |  |  | 
5 |  | 32 µg/mL |  |  | > 32 µg/mL |  |  | > 32 µg/mL |  |  | C[C@@H](O)[C@H]1C(=O)N2C(C(=O)O)=C(S[C@@H]3CN[C@H](C(=O)N(C)C)C3)[C@H](C)[C@H]12 [Meropenem, reference compound] | poor antibacterial activity |  |  | 
6 |  |  |  |  |  |  |  |  |  |  | CC1(C)[C@H](C(=O)O)N2C(=O)C[C@H]2S1(=O)=O [Sulbactam, reference compound] | poor antibacterial activity | 8 µg/mL | 16 µg/mL | 32 µg/mL
